Experimental data reported in patent US20050209278A1, “Piperidinyl- and piperazinyl-sulfonylmethyl hydroxamic acids and their use as protease inhibitors” (priority 2002, published 2005).
Structures can show the parent of a compound that is named as a salt. Where two headings read alike, the source gives them in different places.

Tests used:
MMP-13 = biological target: T1, MMP-13 (Homo sapiens, UniProt P45452); experiment: In vitro MMP inhibition, Ki determination (fluorogenic substrate II); format: biochemical
T1 construct: made in house; host or cells: baculovirus / insect cells
Protocol: (§1) Several hydroxamic acids and salts thereof were analyzed in in vitro assays to determine their ability to inhibit the MMP cleavage of peptide substrates. […] and IC50 constants were calculated from the assayed hydroxamic acid-MMP interactions.
(§2) Human recombinant MMP-1, MMP-2, MMP-9, MMP-13, and MMP-14 were used in this assay. All enzymes were prepared in Assignee's laboratories following usual laboratory procedures. Protocols for the preparation and use of these enzymes are available in the scientific literature. See, e.g., Enzyme Nomenclature (Academic Press, San Diego, Calif., 1992) (and the citations therein). See also, Freije et al., “Molecular cloning and expression of collagenase-3, a novel human matrix metalloproteinase produced by breast carcinomas,” J Biol. Chem., 269(24), 16766-16773 (1994).
The MMP-13 was obtained as a proenzyme from a full-length cDNA clone using baculovirus, as described by V. A. Luckow, “Insect Cell Expression Technology,” Protein Engineering: Principles and Practice, pp. 183-218 (edited by J. L. Cleland et al., Wiley-Liss, Inc., 1996). The expressed proenzyme was first purified over a heparin agarose column, and then over a chelating zinc chloride column. The proenzyme was then activated by APMA for use in the assay. […] See also, O'Reilly et al, Baculovirus Expression Vectors: A Laboratory Manual (W.H. Freeman and Co., New York, N.Y., 1992). See also, King et al., The Baculovirus Expression System: A Laboratory Guide (Chapman & Hall, London, England, 1992).
(§3) All MMPs were activated using 4-aminophenylmercuric acetate (“APMA”, Sigma Chemical, St. Louis, Mo.) or trypsin. MMP-9 also was activated using human recombinant MMP-3 (purified in Assignee's laboratory following standard cloning and purification techniques).
(§4) Two fluorogenic, methoxycoumarin-containing polypeptide substrates were used in the MMP inhibition assays: [drawing 427] Here, “Dpa” is 3-(2,4-dinitrophenyl)-L-2,3-diaminopropionyl group, and “MCA” is 7-methoxycoumarin-4-yl acetyl. Substrate (I) was purchased from Baychem (Redwood City, Calif.), and substrate II was prepared Assignee's laboratory. Substrate I was used in the IC50 determination assays, while substrate II was used in the Ki determination assays. In the absence of MMP inhibitory activity, either substrate is cleaved at the Gly-Leu peptide bond. This cleavage separates the highly fluorogenic peptide from the 2,4-dinitrophenyl quencher, thus resulting in increase of fluorescent intensity.
(§5) The stock solutions of the assayed hydroxamic acids (or salts thereof) were prepared in 1% dimethyl sulfoxide (DMSO). These stock solutions were diluted in Buffer A (100 mM Tris-HCl, 100 mM NaCl, 10 mM CaCl2, 0.05% polyoxyethylene 23 lauryl ether, pH 7.5) to obtain solutions with different hydroxamic acid concentrations, i.e., assay solutions with different concentrations of the assayed MMP inhibitory compound. The experiment controls contained the same amount of Buffer A/DMSO as the assayed sample, but contained no hydroxamic acid (or salt thereof).
(§6) The assays from which the Ki determinations were made were performed as follows. The assayed hydroxamic acid samples were incubated in separate wells of untreated white polystyrene plates (Nunc Nalgene International, Rochester, N.Y.), and analyzed on a Tecan SpectraFlour Plus plate reader. The excitation wavelength was 330 nm, and the emission wavelength—420 nm. All samples (assayed hydroxamic acids and controls) were incubated in separate plate wells at room temperature for 1 hr in the presence of 4 μM of MMP substrate (II). In the absence of MMP inhibitory activity, substrate II was cleaved at the Gly-Leu bond resulting in an increase of relative fluorescence. Inhibition was observed as a reduced rate of this increase in relative fluorescence. The various hydroxamic acids were analyzed using a single low enzyme concentration with a single substrate concentration fixed at or below the Km.

MMP-9 = biological target: T2, MMP-9 (Homo sapiens, UniProt P14780); experiment: as above; format: biochemical
T2 construct: made in house; host or cells: MMP-9-transfected HT1080 cells (spent media)
T2 sequence (P14780 107-707 limits assumed): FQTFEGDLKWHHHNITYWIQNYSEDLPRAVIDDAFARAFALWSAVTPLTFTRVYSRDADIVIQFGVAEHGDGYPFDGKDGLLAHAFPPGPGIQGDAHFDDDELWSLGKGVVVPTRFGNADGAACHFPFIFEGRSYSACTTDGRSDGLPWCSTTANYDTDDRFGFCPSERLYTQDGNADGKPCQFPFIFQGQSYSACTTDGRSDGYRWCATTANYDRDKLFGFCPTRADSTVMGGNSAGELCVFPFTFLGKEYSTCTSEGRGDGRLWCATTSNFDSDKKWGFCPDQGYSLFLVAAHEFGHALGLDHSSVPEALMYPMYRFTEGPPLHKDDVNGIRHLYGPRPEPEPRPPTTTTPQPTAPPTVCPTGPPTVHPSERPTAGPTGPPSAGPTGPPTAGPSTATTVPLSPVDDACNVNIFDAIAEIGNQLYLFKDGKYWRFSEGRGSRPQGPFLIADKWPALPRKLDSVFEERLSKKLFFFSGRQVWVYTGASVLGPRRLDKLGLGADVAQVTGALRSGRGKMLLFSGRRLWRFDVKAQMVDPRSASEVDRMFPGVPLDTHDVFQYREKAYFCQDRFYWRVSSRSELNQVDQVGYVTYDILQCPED
Protocol: as §1, §2
The MMP-9 proenzyme was purified by gelatin Sepharose chromatography from spent media of MMP-9-transfected HT1080 cells provided by Dr. Howard Welgus of Washington University (St. Louis, Mo.).
as §3, §4, §5
as §6, with “Km. This protocol is a modification of method by Knight et al., FEBS Lett., 296(3), 263-266 (1992). Apparent inhibitory constants were determined by non-linear regression of reaction velocity as a function of inhibitor and enzyme concentration using Morrison's equation, as described by Kuzmic, Anal. Biochem. 286, 45-50 (2000). Modifications were made in the non-linear regression method to allow a common control reaction rate and effective enzyme concentration to be shared between all dose-response relationships on a given assay plate. […]” for “Km.”

[1] = human recombinant enzyme, 4 μM substrate II, room temperature, 1 hr, read-out: MMP-13 Ki
[2] = human recombinant enzyme, 4 μM substrate II, room temperature, 1 hr
[3] = value not in parenthesis, read-out: MMP-13 Ki

Compound | Ki (MMP-9; [2]) | Ki (MMP-13; [3]) | Ki (MMP-9; value not in parenthesis) | also measured
CCCCCc1ccc(C2CCN(S(=O)(=O)C3(C(=O)NO)CCN(CCOC)CC3)CC2)cc1 [Example 15, N-hydroxy-1-(2-methoxyethyl)-4-{[4-(4-pentylpheyl)piperidin-1-yl]sulfonyl}piperidine-4-carboxamide Hydrochloride] | 0.13 nM | – | – | Ki (MMP-13; [1]): 0.23 nM
CCc1ccc(N2CCN(S(=O)(=O)C3(C(=O)NO)CCOCC3)CC2)nc1 [Example 114] | – | 0.748 nM | 2.64 nM | –
O=C(NO)C1(S(=O)(=O)N2CCN(c3ccc(COCC(F)(F)C(F)(F)C(F)(F)C(F)F)cc3)CC2)CCOCC1 [Example 68] | – | – | 208 nM | Ki (MMP-13; MMP-13 Ki, value not in parenthesis): 1.85 nM
CCCCOc1ccc(N2CCN(S(=O)(=O)C3(C(=O)NO)CCN(C(=S)N(C)C)CC3)CC2)cc1 [Example 123] | – | 0.74 nM | 2.72 nM | –
COc1ccc(N2CCN(S(=O)(=O)C3(C(=O)NO)CCOCC3)CC2)nc1 [Example 109] | – | 472 nM | 447 nM | –
CCCCOc1ccc(N2CCN(S(=O)(=O)C3(C(=O)NO)CCN(C(=O)N4CCOCC4)CC3)CC2)cc1 [Example 124] | – | 0.121 nM | 0.429 nM | –
CCCCCc1ccc(N2CCN(S(=O)(=O)C3(C(=O)NO)CCOCC3)CC2)c(F)c1 [Example 23, 4-{[4-(2-fluoro-4-pentylphenyl)piperazin-1-yl]sulfonyl}-N-hydroxytetrahydro-2H-pyran-4-carboxamide Hydrochloride] | 2.67 nM | – | – | Ki (MMP-13; [1]): 4.17 nM
CCCCOc1ccc(N2CCN(S(=O)(=O)C3(C(=O)NO)CCN(c4ccc(OCCOC)nn4)CC3)CC2)cc1 [Example 129] | – | 0.302 nM | 1.2 nM | –
COCCN1CCC(C(=O)NO)(S(=O)(=O)N2CCN(c3ccc(OCCCC(F)(F)F)cc3)CC2)CC1 [Example 9, N-hydroxy-1-(2-methoxyethyl)-4-({4-[4-(4,4,4-trifluorobutoxy)phenyl]piperazin-1-yl}sulfonyl)piperidine-4-carboxamide Dihydrochloride] | 2.76 nM | – | – | Ki (MMP-13; [1]): 0.05 nM
COCCN1CCC(C(=O)NO)(S(=O)(=O)N2CCC(c3ccc(OCCCC(F)(F)F)cc3)CC2)CC1 [Example 20, N-hydroxy-1-(2-methoxyethyl)-4-({4-[4-(4,4,4-trifluorobutoxy)phenyl]piperidin-1-yl}sulfonyl)piperidine-4-carboxamide Hydrochloride] | 3.86 nM | – | – | Ki (MMP-13; [1]): 0.15 nM
CCCCOc1ccc(N2CCN(S(=O)(=O)C3(C(=O)NO)CCN(c4ccccn4)CC3)CC2)cc1 [Example 149] | – | 1.31 nM | 5.87 nM | –
O=C(NO)C1(S(=O)(=O)N2CCN(c3ncc(Br)cn3)CC2)CCOCC1 [Example 103] | – | 3.48 nM | 10.5 nM | –
CCCCc1cnc(N2CCN(S(=O)(=O)C3(C(=O)NO)CCOCC3)CC2)cn1 [Example 1, 4-{[4-(5-butylpyrazin-2-yl)piperazin-1-yl]sulfonyl}-N-hydroxytetrahydro-2H-pyran-4-carboxamide Dihydrochloride] | 0.696 nM | – | – | Ki (MMP-13; MMP-13 Ki, human recombinant enzyme, 4 μM substrate II, room temperature, 1 hr): 1.82 nM
CCCCOc1ccc(C2CCN(S(=O)(=O)C3(C(=O)NO)CCN(CCOC)CC3)CC2)cc1 [Example 16, 4-{[4-(4-butoxyphenyl)piperidin-1-yl]sulfonyl}-N-hydroxy-1-(2-methoxyethyl)piperidine-4-carboxamide Hydrochloride] | 0.47 nM | – | – | Ki (MMP-13; [1]): 0.34 nM
CC(C)(C)N1CCC(C(=O)NO)(S(=O)(=O)N2CCN(c3ccc(OCCCC(F)(F)F)cc3F)CC2)CC1 [Example 116] | – | 1.21 nM | 49.5 nM | –
O=C(NO)C1(S(=O)(=O)N2CCN(c3ncccn3)CC2)CCOCC1 [Example 107] | – | 22.4 nM | 153 nM | –
O=C(NO)C1(S(=O)(=O)N2CCN(c3ccc(OCCCC(F)(F)F)cc3)CC2)CCN(C2CC2)CC1 [Example 153] | – | 0.099 nM | 6.1 nM | –
CCCCCc1ccc(N2CCN(S(=O)(=O)C3(C(=O)NO)CCN(C(=O)C(F)(F)F)CC3)CC2)cc1 [Example 21, N-hydroxy-4-{[4-(4-pentylphenyl)piperazin-1-yl]sulfonyl}-1-(trifluoroacetyl)piperidine-4-carboxamide Hydrochloride] | 8.18 nM | – | – | Ki (MMP-13; [1]): 6.17 nM
O=C(NO)C1(S(=O)(=O)N2CCN(c3ncccn3)CC2)CCOCC1 [Example 106] | – | 27.2 nM | 235 nM | –
CCCCOc1ccc(N2CCN(S(=O)(=O)C3(C(=O)NO)CCN(c4ncc(CC)cn4)CC3)CC2)cc1 [Example 155] | – | 3.36 nM | 9.86 nM | –
O=C(NO)C1(S(=O)(=O)N2CCN(c3ccc(-c4ccc(Cl)cc4)cn3)CC2)CCOCC1 [Example 60] | – | 0.32 nM | 7.05 nM | –
O=C1c2ccccc2C(=O)N1CCCCc1ccc(N2CCN(S(=O)(=O)C3(C(=O)NO)CCOCC3)CC2)nc1 [Example 132] | – | 0.395 nM | 28.3 nM | –
CCCCCCCCCc1cnc(N2CCN(S(=O)(=O)C3(C(=O)NO)CCOCC3)CC2)nc1 [Example 110] | – | 3.23 nM | 40.6 nM | –
CCCCCCCCCc1cnc(N2CCN(S(=O)(=O)C3(C(=O)NO)CCOCC3)CC2)nc1 [Example 111] | – | 2.58 nM | 30.6 nM | –
CCCCc1ccc(C2CCN(S(=O)(=O)C3(C(=O)NO)CCN(C4CC4)CC3)CC2)nc1 [Example 24, 4-{[4-(5-butylpyridin-2-yl)piperidin-1-yl]sulfonyl}-1-cyclopropyl-N-hydroxypiperidine-4-carboxamide Hydrochloride] | 0.12 nM | – | – | Ki (MMP-13; [1]): 0.54 nM
O=C(NO)C1(S(=O)(=O)N2CCN(c3ccc(OCC4CC4)c(F)c3)CC2)CCN(C2CC2)CC1 [Example 10, 1-cyclopropyl-4-[[4-[4-(cyclopropylmethoxy)-3-fluorophenyl]-1-piperazinyl]sulfonyl]-N-hydroxy-4-piperidinecarboxamide, dihydrochloride] | 0.97 nM | – | – | Ki (MMP-13; [1]): 3.88 nM
COCCN1CCC(C(=O)NO)(S(=O)(=O)N2CCN(c3ccc(OCCC(C)C)cc3)CC2)CC1 [Example 148] | – | 0.24 nM | 2.35 nM | –
CCCCOc1ccc(N2CCN(S(=O)(=O)C3(C(=O)NO)CCN(c4ccc(O)cc4)CC3)CC2)cc1 [Example 121] | – | 0.68 nM | 3.6 nM | –
O=C(c1cccnc1)N1CCC(C(=O)NO)(S(=O)(=O)N2CCN(c3ccc(OCCCC(F)(F)F)cc3)CC2)CC1 [Example 122] | – | 0.03 nM | 0.01 nM | –
